Tested on: rat
Assay type: in vivo
Conditions: intravenous administration
Method: It has been confirmed that the compounds used in the present invention have low toxicity and are sufficiently safe for use as pharmaceutical preparations. For example, the maximal tolerated dose of the compound A (lysine salt of (5Z,9β,11α,13E)-17,17-propano-11,16-dihydroxy-9-chloro-20-norprosta-5,13-dienoic acid) in the compound represented by formula (I) used in the present invention was 30 mg/kg weight or more for rat intravenous administration.

**Q.** CCC1(C(O)CC=CC2C(O)CC(Cl)C2CC=CCCCC(=O)O)CCC1.NCCCCC(N)C(=O)O (stereo not drawn) [Compound A, (5Z,9β,11α,13E)-17,17-propano-11,16-dihydroxy-9-chloro-20-norprosta-5,13-dienoic acid lysine salt] was tested. Which maximal tolerated dose did it give?
**A.** ≥ 30 mg/kg weight

— US20070167403A1, “Remedy for spinal canal stenosis” (priority 2003, published 2007)
